According to US20250074891A1 (Anaxis Pharma Pty Ltd., priority 2021, published 2025):
pKd: −log10 of the molar value.

Assays:
Details in all cases: Table 35
RIP3 = RIP3 (Homo sapiens (Human), UniProt Q9Y572); experiment: KINOMEscan binding assay, RIP3
Description: (§1) Kinase assays. For most assays, kinase-tagged T7 phage strains were grown in parallel in 24-well blocks in an E. coli host derived from the BL21 strain. E. coli were grown to log-phase and infected with T7 phage from a frozen stock (multiplicity of infection=0.4) and incubated with shaking at 32° C. until lysis (90-150 minutes).
(§2) The Hill Slope was set to −1.

MLKL (full length) = MLKL (full length) (Homo sapiens (Human), UniProt Q8NB16); experiment: KINOMEscan binding assay, MLKL (full length)
Description: as §1, §2

RIP1 = RIP1 (Homo sapiens (Human), UniProt Q13546); experiment: KINOMEscan binding assay, RIP1
RIP1, sequence (Q13546 whole entry): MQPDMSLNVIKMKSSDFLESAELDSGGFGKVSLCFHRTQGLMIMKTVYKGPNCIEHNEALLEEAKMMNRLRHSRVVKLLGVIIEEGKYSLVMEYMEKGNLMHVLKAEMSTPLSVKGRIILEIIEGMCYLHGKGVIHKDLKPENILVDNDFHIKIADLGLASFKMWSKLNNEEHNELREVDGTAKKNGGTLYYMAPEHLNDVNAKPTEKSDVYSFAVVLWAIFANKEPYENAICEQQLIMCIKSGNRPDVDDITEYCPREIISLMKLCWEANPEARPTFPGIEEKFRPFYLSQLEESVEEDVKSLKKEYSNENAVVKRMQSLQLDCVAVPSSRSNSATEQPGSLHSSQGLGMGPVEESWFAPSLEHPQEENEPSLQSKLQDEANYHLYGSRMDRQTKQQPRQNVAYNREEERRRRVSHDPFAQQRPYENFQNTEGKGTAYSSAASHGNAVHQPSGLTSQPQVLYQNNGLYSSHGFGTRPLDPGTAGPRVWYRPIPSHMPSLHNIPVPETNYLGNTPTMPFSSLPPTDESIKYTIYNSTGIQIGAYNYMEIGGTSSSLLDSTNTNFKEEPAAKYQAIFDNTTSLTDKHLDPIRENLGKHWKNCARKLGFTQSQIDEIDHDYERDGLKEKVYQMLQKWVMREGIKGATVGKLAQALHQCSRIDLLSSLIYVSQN

RIP3, sequence (Q9Y572 whole entry): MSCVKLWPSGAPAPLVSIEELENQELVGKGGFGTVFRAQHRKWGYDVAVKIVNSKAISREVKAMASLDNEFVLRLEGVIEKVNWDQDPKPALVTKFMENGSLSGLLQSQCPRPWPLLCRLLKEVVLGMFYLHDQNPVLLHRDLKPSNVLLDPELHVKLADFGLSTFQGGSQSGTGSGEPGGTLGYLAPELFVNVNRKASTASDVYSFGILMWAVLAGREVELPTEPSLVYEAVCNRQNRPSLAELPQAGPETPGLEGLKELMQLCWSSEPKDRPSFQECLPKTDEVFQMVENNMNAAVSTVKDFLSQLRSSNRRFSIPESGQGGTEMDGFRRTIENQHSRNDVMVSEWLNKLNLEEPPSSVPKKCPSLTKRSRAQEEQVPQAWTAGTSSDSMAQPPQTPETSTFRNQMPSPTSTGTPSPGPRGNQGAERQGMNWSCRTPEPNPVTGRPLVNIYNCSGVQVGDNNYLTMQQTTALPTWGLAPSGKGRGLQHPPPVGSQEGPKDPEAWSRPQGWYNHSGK
MLKL (full length), sequence (Q8NB16 whole entry): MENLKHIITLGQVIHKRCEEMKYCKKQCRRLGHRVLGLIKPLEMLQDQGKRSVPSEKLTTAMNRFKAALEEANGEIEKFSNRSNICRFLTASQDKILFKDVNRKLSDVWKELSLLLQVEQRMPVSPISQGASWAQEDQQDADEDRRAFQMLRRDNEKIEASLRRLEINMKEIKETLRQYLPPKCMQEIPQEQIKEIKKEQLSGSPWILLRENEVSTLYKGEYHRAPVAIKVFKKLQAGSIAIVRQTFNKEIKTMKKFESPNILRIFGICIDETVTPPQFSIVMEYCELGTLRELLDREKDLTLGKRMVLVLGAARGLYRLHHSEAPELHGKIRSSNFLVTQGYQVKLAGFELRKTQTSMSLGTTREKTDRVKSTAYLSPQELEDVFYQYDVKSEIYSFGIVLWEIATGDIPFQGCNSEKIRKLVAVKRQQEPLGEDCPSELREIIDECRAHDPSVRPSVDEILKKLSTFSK

## CCS(=O)(=O)Nc1ccc(-c2n[nH]c(Nc3cnccn3)c2C(N)=O)cc1OCc1ccccn1 [Compound 261, 3-{4-ethanesulfonamido-3-[(pyridin-2-yl)methoxy]phenyl}-5-[(pyrazin-2-yl)amino]-1H-pyrazole-4-carboxamide]
RIP3
  pKd: < 4.52
MLKL (full length)
  pKd: > 8.00
RIP1
  pKd: < 4.52

## COc1cnc(Nc2[nH]nc(-c3ccc(NS(=O)(=O)C(F)F)c(OCc4ccc(F)cc4)c3)c2C(N)=O)cn1 [Compound 191, 3-(4-((difluoromethyl)sulfonamido)-3-((4-fluorobenzyl)oxy)phenyl)-5-((5-methoxypyrazin-2-yl)amino)-1H-pyrazole-4-carboxamide]
RIP3
  pKd: < 4.52
MLKL (full length)
  pKd: > 8.00
RIP1
  pKd: < 4.52

## NC(=O)c1c(-c2ccc(NS(=O)(=O)C(F)F)c(OCc3nccs3)c2)n[nH]c1Nc1cnccn1 [Compound 275, 3-(4-((difluoro-methyl)sulfon-amido)-3-(thiazol-2-ylmethoxy)phenyl)-5-(pyrazin-2-ylamino)-1H-pyrazole-4-carboxamide]
RIP3
  pKd: < 4.52
MLKL (full length)
  pKd: > 8.00
RIP1
  pKd: < 4.52

## COCC(Oc1cc(-c2n[nH]c(Nc3cnccn3)c2C(N)=O)ccc1NS(=O)(=O)C(F)F)c1ccc(F)cc1 (stereo not drawn) [Compound 319, 3-(4-((difluoromethyl)sulfonamido)-3-(1-(4-fluorophenyl)-2-methoxyethoxy)phenyl)-5-(pyrazin-2-ylamino)-1H-pyrazole-4-carboxamide]
RIP3
  pKd: < 4.52
MLKL (full length)
  pKd: > 8.00
RIP1
  pKd: < 4.52

## CCS(=O)(=O)Nc1ccc(-c2n[nH]c(Nc3cnccn3)c2C(N)=O)cc1OCc1ccc(F)cn1 [Compound 156, 3-(4-(ethylsulfonamido)-3-((5-fluoropyridin-2-yl)methoxy)phenyl)-5-(pyrazin-2-ylamino)-1H-pyrazole-4-carboxamide]
RIP3
  pKd: < 4.52
MLKL (full length)
  pKd: > 8.00
RIP1
  pKd: < 4.52

## NC(=O)c1c(-c2ccc(NS(=O)(=O)C3CC3)cc2)n[nH]c1Nc1cnccn1 [Compound 68, 3-(4-(cyclopropanesulfonamido)phenyl)-5-(pyrazin-2-ylamino)-1H-pyrazole-4-carboxamide]
RIP3
  pKd: < 4.52
MLKL (full length)
  pKd: > 8.00
RIP1
  pKd: < 4.52

## CCS(=O)(=O)Nc1ccc(-c2n[nH]c(Nc3ccccn3)c2C(N)=O)cc1OCc1ccncc1 [Compound 27, 3-(4-(ethylsulfon-amido)-3-(pyridin-4-ylmethoxy)phenyl)-5-(pyridin-2-ylamino)-1H-pyrazole-4-carboxamide]
RIP3
  pKd: < 4.52
MLKL (full length)
  pKd: > 8.00
RIP1
  pKd: < 4.52

## CCS(=O)(=O)Nc1ccc(-c2n[nH]c(Nc3cnccn3)c2C(N)=O)cc1OCc1cccnc1 [Compound 32, 3-(4-(ethylsulfonamido)-3-(226yridine-3-ylmethoxy)phenyl)-5-(pyrazin-2-ylamino)-1H-pyrazole-4-carboxamide]
RIP3
  pKd: < 4.52
MLKL (full length)
  pKd: > 8.00
RIP1
  pKd: < 4.52

## CCS(=O)(=O)Nc1ccc(-c2n[nH]c(Nc3ccc(C(=O)O)cn3)c2C(N)=O)cc1O[C@@H](C)c1ccc(F)cc1 [Compound 315, (S)-6-((4-carbamoyl-3-(4-(ethylsulfonamido)-3-(1-(4-fluorophenyl)ethoxy)phenyl)-1H-pyrazol-5-yl)amino)nicotinic acid]
RIP3
  pKd: < 4.52
MLKL (full length)
  pKd: > 8.00
RIP1
  pKd: < 4.52

## NC(=O)c1c(-c2ccc(NS(=O)(=O)C(F)F)c(OCc3ccc(F)cc3)c2)n[nH]c1Nc1cnc(C(F)(F)F)cn1 [Compound 246, 3-[4-(difluoromethanesulfonamido)-3-[(4-fluorophenyl)methoxy]phenyl]-5-{[5-(trifluoromethyl)pyrazin-2-yl]amino}-1H-pyrazole-4-carboxamide]
RIP3
  pKd: < 4.52
MLKL (full length)
  pKd: > 8.00
RIP1
  pKd: < 4.52

## CCOc1cc(Nc2[nH]nc(-c3ccc(NS(=O)(=O)CC)cc3)c2C(N)=O)ccn1 [Compound 105, 5-((2-ethoxypyridin-4-yl)amino)-3-(4-(ethylsulfonamido)phenyl)-1H-pyrazole-4-carboxamide]
RIP3
  pKd: < 4.52
MLKL (full length)
  pKd: > 8.00
RIP1
  pKd: < 4.52

## NC(=O)c1c(-c2ccc(NS(=O)(=O)CC(F)(F)F)cc2OCc2ccc(F)cc2)n[nH]c1Nc1cnccn1 [Compound 139, 3-(2-((4-fluorobenzyl)oxy)-4-((2,2,2-trifluoroethyl)sulfonamido)phenyl)-5-(pyrazin-2-ylamino)-1H-pyrazole-4-carboxamide]
RIP3
  pKd: < 4.52
MLKL (full length)
  pKd: > 8.00
RIP1
  pKd: < 4.52

## COCC(C)(C)c1cc(Nc2[nH]nc(-c3ccc(NS(=O)(=O)C(F)F)c(O[C@@H](C)c4ccc(F)cc4)c3)c2C(N)=O)no1 [Compound 288, (S)-3-(4-((difluoromethyl)sulfonamido)-3-(1-(4-fluorophenyl)ethoxy)phenyl)-5-((5-(1-methoxy-2-methylpropan-2-yl)isoxazol-3-yl)amino)-1H-pyrazole-4-carboxamide]
RIP3
  pKd: < 4.52
MLKL (full length)
  pKd: > 8.00
RIP1
  pKd: < 4.52

## CCS(=O)(=O)Nc1ccc(-c2n[nH]c(Nc3cnccn3)c2C(N)=O)c(OCc2ccc(F)cc2)c1 [Compound 21, 3-(4-(ethylsulfonamido)-2-((4-fluorobenzyl)oxy)phenyl)-5-(pyrazin-2-ylamino)-1H-pyrazole-4-carboxamide]
RIP3
  pKd: < 4.52
MLKL (full length)
  pKd: > 8.00
RIP1
  pKd: < 4.52

## CCS(=O)(=O)Nc1ccc(-c2n[nH]c(Nc3cc4ccccc4cn3)c2C(N)=O)cc1 [Compound 87, 3-(4-(ethylsulfonamido)phenyl)-5-(isoquinolin-3-ylamino)-1H-pyrazole-4-carboxamide]
RIP3
  pKd: < 4.52
MLKL (full length)
  pKd: > 8.00
RIP1
  pKd: < 4.52

## NC(=O)c1c(-c2ccc(NS(=O)(=O)CC(F)(F)F)c(OCc3ccc(F)cn3)c2)n[nH]c1Nc1cnccn1 [Compound 231, 3-(3-((5-fluoropyridin-2-yl)methoxy)-4-((2,2,2-trifluoroethyl)sulfonamido)phenyl)-5-(pyrazin-2-ylamino)-1H-pyrazole-4-carboxamide]
RIP3
  pKd: < 4.52
MLKL (full length)
  pKd: > 8.00
RIP1
  pKd: < 4.52

## COCC(Oc1cc(-c2n[nH]c(Nc3cc(C)on3)c2C(N)=O)ccc1NS(=O)(=O)C(F)F)c1ccc(F)cc1 (racemic) [Compound 298, 3-(4-((difluoromethyl)sulfonamido)-3-(1-(4-fluorophenyl)-2-methoxyethoxy)phenyl)-5-((5-methylisoxazol-3-yl)amino)-1H-pyrazole-4-carboxamide]
RIP3
  pKd: < 4.52
MLKL (full length)
  pKd: > 8.00
RIP1
  pKd: < 4.52

## NC(=O)c1c(-c2ccc(NS(=O)(=O)C(F)F)c(OCc3ccc(F)cc3)c2)n[nH]c1Nc1cccc(C(F)(F)F)n1 [Compound 217]
RIP3
  pKd: < 4.52
MLKL (full length)
  pKd: > 8.00
RIP1
  pKd: < 4.52

## CCS(=O)(=O)Nc1ccc(-c2n[nH]c(Nc3cc(C(F)(F)F)ccn3)c2C(N)=O)cc1OCc1ccc(F)cc1 [Compound 213]
RIP3
  pKd: < 4.52
MLKL (full length)
  pKd: 6.00 to 8.00
RIP1
  pKd: < 4.52

## C[C@H](Oc1cc(-c2n[nH]c(Nc3ccccn3)c2C(N)=O)ccc1NS(=O)(=O)C(F)F)c1ccc(F)cc1 [Compound 260]
RIP3
  pKd: < 4.52
MLKL (full length)
  pKd: > 8.00
RIP1
  pKd: < 4.52

## Cc1cn(C)nc1Nc1[nH]nc(-c2ccc(NS(=O)(=O)C(F)F)c(O[C@@H](C)c3ccc(F)cc3)c2)c1C(N)=O [Compound 286, (S)-3-(4-((difluoromethyl)sulfonamido)-3-(1-(4-fluorophenyl)ethoxy)phenyl)-5-((1,4-dimethyl-1H-pyrazol-3-yl)amino)-1H-pyrazole-4-carboxamide]
RIP3
  pKd: < 4.52
MLKL (full length)
  pKd: > 8.00
RIP1
  pKd: < 4.52

## NC(=O)c1c(-c2ccc(NS(=O)(=O)CC(F)F)c(OCc3ccc(F)cc3)c2)n[nH]c1Nc1cnccn1 [Compound 180, 3-(4-((2,2-difluoroethyl)sulfonamido)-3-((4-fluorobenzyl)oxy)phenyl)-5-(pyrazin-2-ylamino)-1H-pyrazole-4-carboxamide]
RIP3
  pKd: < 4.52
MLKL (full length)
  pKd: > 8.00
RIP1
  pKd: < 4.52

## NC(=O)c1c(-c2ccc(NS(=O)(=O)C(F)F)c(Oc3ccc(F)cc3)c2)n[nH]c1Nc1cccc(C(F)(F)F)n1 [Compound 147, 3-(4-((difluoromethyl)sulfonamido)-3-(4-fluorophenoxy)phenyl)-5-((6-(trifluoromethyl)pyridine-2-yl)amino)-1H-pyrazole-4-carboxamide]
RIP3
  pKd: < 4.52
MLKL (full length)
  pKd: > 8.00
RIP1
  pKd: < 4.52

## CCS(=O)(=O)Nc1ccc(-c2n[nH]c(Nc3ccccn3)c2C(N)=O)cc1OCc1ccc(F)cc1 [Compound 30, 3-(4-(ethylsulfon-amido)-3-((4-fluorobenzyl)oxy)phenyl)-5-(pyridin-2-ylamino)-1H-pyrazole-4-carboxamide]
RIP3
  pKd: < 4.52
MLKL (full length)
  pKd: > 8.00
RIP1
  pKd: < 4.52

## NC(=O)c1c(-c2ccc(NS(=O)(=O)C(F)F)c(Oc3ccc(F)cc3)c2)n[nH]c1Nc1cnccn1 [Compound 177, 3-(4-((difluoromethyl)sulfonamido)-3-(4-fluorophenoxy)phenyl)-5-(pyrazin-2-ylamino)-1H-pyrazole-4-carboxamide]
RIP3
  pKd: < 4.52
MLKL (full length)
  pKd: > 8.00
RIP1
  pKd: < 4.52

## CCS(=O)(=O)Nc1ccc(-c2n[nH]c(Nc3ccnc(C(F)(F)F)n3)c2C(N)=O)cc1OCc1ccc(F)cc1 [Compound 195, 3-(4-(ethylsulfonamido)-3-((4-fluorobenzyl)oxy)phenyl)-5-((2-(trifluoromethyl)pyrimidin-4-yl)amino)-1H-pyrazole-4-carboxamide]
RIP3
  pKd: < 4.52
MLKL (full length)
  pKd: > 8.00
RIP1
  pKd: < 4.52

## CCS(=O)(=O)Nc1ccc(-c2n[nH]c(Nc3ccn(C)n3)c2C(N)=O)cc1 [compound 91, 3-(4-(ethyl-sulfonamido)phenyl)-5-((1-methyl-1H-pyrazol-3-yl)amino)-1H-pyrazole-4-carboxamide]
RIP3
  pKd: < 4.52
MLKL (full length)
  pKd: > 8.00
RIP1
  pKd: < 4.52
